Experimental data as given in patent US20250352520A1, “USE OF DEXPRAMIPEXOLE FOR THE TREATMENT OF EOSINOPHILIC COPD” (Areteia Therapeutics, Inc., priority 2024, published 2025).
Like-named read-outs stand apart in the source and are kept apart here.

Test system: blood eosinophils
Protocol: This was a Phase II, open-label, multicenter study in approximately 30 participants aged≥40 to ≤80 years of age with a diagnosis of COPD and a blood eosinophil count of ≥0.30×10^9/L at screening. Some patients with blood eosinophil counts of 0.25-0.299×10^9/L at screening also were included. Participants were treated with 150 mg dexpramipexole BID. […] Informed consent was obtained from participants before the initiation of any study-specific procedures. This study was conducted at approximately 30 sites in the US.
There were three phases to the study: • Screening Phase (Screening Visit through Baseline) Participants underwent screening to assess whether they satisfy the eligibility criteria. […] After the collection of all Baseline assessments, participants began investigational treatment (dexpramipexole 150 mg), BID for 16 weeks. The Week 16 Visit was the Primary Outcome Visit for the study. • Follow-up Phase (Conclusion of Week 16 assessments through Week 20) During this phase, participants had one final phone visit to collect final safety assessments following cessation of investigational product.
The primary endpoint of this study was geometric mean change in the blood AEC from Baseline to Week 16.
Blood eosinophil counts were obtained at every onsite study visit. Samples were collected between 6 AM and 12 noon to minimize diurnal variation.

[1] = Subject 10001-001-0001 (<50% AEC reduction at Week 16), Week 4
[2] = Subject 10001-001-0001 (<50% AEC reduction at Week 16), Week 8
[3] = Subject 10001-001-0001 (<50% AEC reduction at Week 16), Week 12
[4] = Subject 10001-001-0001 (<50% AEC reduction at Week 16), Week 16
[5] = Subject 10001-001-0002 (>=50% AEC reduction at Week 16), Week 4
[6] = Subject 10001-008-0002 (<50% AEC reduction at Week 16), Week 4
[7] = Subject 10001-008-0002 (<50% AEC reduction at Week 16), Week 8
[8] = Subject 10001-008-0002 (<50% AEC reduction at Week 16), Week 12
[9] = Subject 10001-008-0002 (<50% AEC reduction at Week 16), Week 16
[10] = Subject 10001-010-0005 (<50% AEC reduction at Week 16), Week 4
[11] = Subject 10001-010-0005 (<50% AEC reduction at Week 16), Week 8
[12] = Subject 10001-010-0005 (<50% AEC reduction at Week 16), Week 12
[13] = Subject 10001-010-0005 (<50% AEC reduction at Week 16), Week 16
[14] = Subject 10001-022-0001 (>=50% AEC reduction at Week 16), Week 4
[15] = Subject 10001-022-0001 (>=50% AEC reduction at Week 16), Week 8
[16] = Subject 10001-022-0001 (>=50% AEC reduction at Week 16), Week 12
[17] = Subject 10001-022-0001 (>=50% AEC reduction at Week 16), Week 16
[18] = Subject 10001-022-0006 (<50% AEC reduction at Week 16), Week 4
[19] = Subject 10001-022-0006 (<50% AEC reduction at Week 16), Week 12
[20] = Subject 10001-022-0006 (<50% AEC reduction at Week 16), Week 16
[21] = Subject 10001-024-0002 (>=50% AEC reduction at Week 16), Week 4
[22] = Subject 10001-024-0002 (>=50% AEC reduction at Week 16), Week 8
[23] = Subject 10001-024-0002 (>=50% AEC reduction at Week 16), Week 12
[24] = Subject 10001-024-0002 (>=50% AEC reduction at Week 16), Week 16

## CCCN[C@@H]1CCc2nc(N)sc2C1 [Dexpramipexole, (6R)-2-amino-4,5,6,7-tetrahydro-6-(propylamino)benzothiazole]
[1]
  AEC Ratio to Baseline: 0.70
  AEC Result: 290 cells/uL
[2]
  AEC Ratio to Baseline: 0.56
  AEC Result: 235 cells/uL
[3]
  AEC Ratio to Baseline: 0.54
  AEC Result: 224 cells/uL
[4]
  AEC Ratio to Baseline: 0.62
  AEC Result: 260 cells/uL
[5]
  AEC Ratio to Baseline: 0.80
  AEC Result: 298 cells/uL
Subject 10001-001-0002 (>=50% AEC reduction at Week 16), Week 8
  AEC Result: 0 cells/uL
Subject 10001-001-0002 (>=50% AEC reduction at Week 16), Week 8, zero value replaced with 5 cells
  AEC Ratio to Baseline: 0.01(a)
Subject 10001-001-0002 (>=50% AEC reduction at Week 16), Week 12
  AEC Result: 0 cells/uL
Subject 10001-001-0002 (>=50% AEC reduction at Week 16), Week 12, zero value replaced with 5 cells
  AEC Ratio to Baseline: 0.01(a)
Subject 10001-001-0002 (>=50% AEC reduction at Week 16), Week 16
  AEC Result: 0 cells/uL
Subject 10001-001-0002 (>=50% AEC reduction at Week 16), Week 16, zero value replaced with 5 cells
  AEC Ratio to Baseline: 0.01(a)
[6]
  AEC Ratio to Baseline: 0.70
  AEC Result: 218 cells/uL
[7]
  AEC Ratio to Baseline: 1.08
  AEC Result: 336 cells/uL
[8]
  AEC Ratio to Baseline: 1.90
  AEC Result: 589 cells/uL
[9]
  AEC Ratio to Baseline: 1.24
  AEC Result: 384 cells/uL
[10]
  AEC Ratio to Baseline: 0.94
  AEC Result: 388 cells/uL
[11]
  AEC Ratio to Baseline: 0.96
  AEC Result: 396 cells/uL
[12]
  AEC Ratio to Baseline: 0.56
  AEC Result: 231 cells/uL
[13]
  AEC Ratio to Baseline: 0.64
  AEC Result: 266 cells/uL
[14]
  AEC Ratio to Baseline: 1.51
  AEC Result: 724 cells/uL
[15]
  AEC Ratio to Baseline: 0.19
  AEC Result: 90 cells/uL
[16]
  AEC Ratio to Baseline: 0.01
  AEC Result: 6 cells/uL
[17]
  AEC Ratio to Baseline: 0.01
  AEC Result: 6 cells/uL
[18]
  AEC Ratio to Baseline: 1.23
  AEC Result: 676 cells/uL
[19]
  AEC Ratio to Baseline: 1.07
  AEC Result: 589 cells/uL
[20]
  AEC Ratio to Baseline: 0.62
  AEC Result: 342 cells/uL
[21]
  AEC Ratio to Baseline: 0.77
  AEC Result: 192 cells/uL
[22]
  AEC Ratio to Baseline: 0.77
  AEC Result: 192 cells/uL
[23]
  AEC Ratio to Baseline: 0.04
  AEC Result: 9 cells/uL
[24]
  AEC Ratio to Baseline: 0.39
  AEC Result: 98 cells/uL
Week 4
  AEC Observed, Geometric Mean ± GSE: 353.3 ± 1.22 cells/uL
  AEC Observed, Max: 724 cells/uL
  AEC Observed, Median: 298.0 cells/uL
  AEC Observed, Min: 192 cells/uL
  AEC Observed, Q1: 218 cells/uL
  AEC Observed, Q3: 676 cells/uL
  AEC Ratio to baseline, Geometric Mean ± GSE: 0.911 ± 1.1189
  AEC Ratio to baseline, Max: 1.51
  AEC Ratio to baseline, Median: 0.799
  AEC Ratio to baseline, Min: 0.70
  AEC Ratio to baseline, Q1: 0.70
  AEC Ratio to baseline, Q3: 1.23
Week 8
  AEC Observed, Geometric Mean ± GSE: 118.0 ± 1.95 cells/uL
  AEC Observed, Max: 396 cells/uL
  AEC Observed, Median: 212.4 cells/uL
  AEC Observed, Min: 5 cells/uL
  AEC Observed, Q1: 90 cells/uL
  AEC Observed, Q3: 336 cells/uL
  AEC Ratio to baseline, Geometric Mean ± GSE: 0.323 ± 1.9860
  AEC Ratio to baseline, Max: 1.08
  AEC Ratio to baseline, Median: 0.658
  AEC Ratio to baseline, Min: 0.01
  AEC Ratio to baseline, Q1: 0.19
  AEC Ratio to baseline, Q3: 0.96
Week 12
  AEC Observed, Geometric Mean ± GSE: 64.9 ± 2.30 cells/uL
  AEC Observed, Max: 589 cells/uL
  AEC Observed, Median: 224.0 cells/uL
  AEC Observed, Min: 5 cells/uL
  AEC Observed, Q1: 6 cells/uL
  AEC Observed, Q3: 589 cells/uL
  AEC Ratio to baseline, Geometric Mean ± GSE: 0.167 ± 2.2497
  AEC Ratio to baseline, Max: 1.90
  AEC Ratio to baseline, Median: 0.538
  AEC Ratio to baseline, Min: 0.01
  AEC Ratio to baseline, Q1: 0.01
  AEC Ratio to baseline, Q3: 1.07
Week 16
  AEC Observed, Geometric Mean ± GSE: 82.8 ± 2.06 cells/uL
  AEC Observed, Max: 384 cells/uL
  AEC Observed, Median: 260.0 cells/uL
  AEC Observed, Min: 5 cells/uL
  AEC Observed, Q1: 6 cells/uL
  AEC Observed, Q3: 342 cells/uL
  AEC Ratio to baseline, Geometric Mean ± GSE: 0.213 ± 2.0849
  AEC Ratio to baseline, Max: 1.24
  AEC Ratio to baseline, Median: 0.620
  AEC Ratio to baseline, Min: 0.01
  AEC Ratio to baseline, Q1: 0.01
  AEC Ratio to baseline, Q3: 0.64
  AEC, average, percent of the baseline value: 21.3 % of the baseline value
  subjects classified as AECR≥0.5 (reduction in AEC of ≥50% from baseline at week 16): 3 of the 7 subjects
